# Laboratory results taken from publication PMC10088252.
# Conditions: 300 mg QD (n=12)
structure (smiles),measurement,value
O=C(Nc1ccc(Oc2ccnc3c2CCN3)c(F)c1)c1c[nH]cc(-c2ccc(F)cc2)c1=O,"TRAE Accessory nerve disorder, any grade",1 (8.3) n (%)
same,"TRAE Accessory nerve disorder, grade 3-4",0 n (%)
same,"TRAE Activated partial thromboplastin time prolonged, any grade",1 (8.3) n (%)
same,"TRAE Activated partial thromboplastin time prolonged, grade 3-4",0 n (%)
same,"TRAE Anaemia, any grade",0 n (%)
same,"TRAE Anaemia, grade 3-4",0 n (%)
same,"TRAE Anaesthesia oral, any grade",0 n (%)
same,"TRAE Anaesthesia oral, grade 3-4",0 n (%)
same,"TRAE Arrhythmia, any grade",0 n (%)
same,"TRAE Arrhythmia, grade 3-4",0 n (%)
same,"TRAE Arthralgia, any grade",0 n (%)
same,"TRAE Arthralgia, grade 3-4",0 n (%)
same,"TRAE Asthenia, any grade",0 n (%)
same,"TRAE Asthenia, grade 3-4",0 n (%)
same,"TRAE Blister, any grade",0 n (%)
same,"TRAE Blister, grade 3-4",0 n (%)
same,"TRAE Chest discomfort, any grade",1 (8.3) n (%)
same,"TRAE Chest discomfort, grade 3-4",0 n (%)
same,"TRAE Chronic kidney disease, any grade",0 n (%)
same,"TRAE Chronic kidney disease, grade 3-4",0 n (%)
same,"TRAE Constipation, any grade",2 (16.7) n (%)
same,"TRAE Constipation, grade 3-4",0 n (%)
same,"TRAE Cough, any grade",0 n (%)
same,"TRAE Cough, grade 3-4",0 n (%)
same,"TRAE Decreased Ccr, any grade",2 (16.7) n (%)
same,"TRAE Decreased Ccr, grade 3-4",0 n (%)
same,"TRAE Decreased appetite, any grade",2 (16.7) n (%)
same,"TRAE Decreased appetite, grade 3-4",0 n (%)
same,"TRAE Diarrhoea, any grade",1 (8.3) n (%)
same,"TRAE Diarrhoea, grade 3-4",0 n (%)
same,"TRAE Dizziness, any grade",1 (8.3) n (%)
same,"TRAE Dizziness, grade 3-4",0 n (%)
same,"TRAE Dry mouth, any grade",1 (8.3) n (%)
same,"TRAE Dry mouth, grade 3-4",0 n (%)
same,"TRAE Dysgeusia, any grade",1 (8.3) n (%)
same,"TRAE Dysgeusia, grade 3-4",0 n (%)
same,"TRAE Dyskinesia, any grade",0 n (%)
same,"TRAE Dyskinesia, grade 3-4",0 n (%)
same,"TRAE Dysphonia, any grade",0 n (%)
same,"TRAE Dysphonia, grade 3-4",0 n (%)
same,"TRAE Dyspnoea, any grade",0 n (%)
same,"TRAE Dyspnoea, grade 3-4",0 n (%)
same,"TRAE Electrocardiogram QT prolonged, any grade",1 (8.3) n (%)
same,"TRAE Electrocardiogram QT prolonged, grade 3-4",0 n (%)
same,"TRAE Elevated ALT, any grade",3 (25.0) n (%)
same,"TRAE Elevated ALT, grade 3-4",0 n (%)
same,"TRAE Elevated AST, any grade",2 (16.7) n (%)
same,"TRAE Elevated AST, grade 3-4",0 n (%)
same,"TRAE Elevated D dimer, any grade",0 n (%)
same,"TRAE Elevated D dimer, grade 3-4",0 n (%)
same,"TRAE Elevated GGT, any grade",0 n (%)
same,"TRAE Elevated GGT, grade 3-4",0 n (%)
same,"TRAE Elevated LDH, any grade",0 n (%)
same,"TRAE Elevated LDH, grade 3-4",0 n (%)
same,"TRAE Elevated alpha-HBDH, any grade",0 n (%)
same,"TRAE Elevated alpha-HBDH, grade 3-4",0 n (%)
same,"TRAE Elevated bilirubin, any grade",0 n (%)
same,"TRAE Elevated bilirubin, grade 3-4",0 n (%)
same,"TRAE Elevated blood creatinine, any grade",3 (25.0) n (%)
same,"TRAE Elevated blood creatinine, grade 3-4",0 n (%)
same,"TRAE Elevated creatine phosphokinase, any grade",0 n (%)
same,"TRAE Elevated creatine phosphokinase, grade 3-4",0 n (%)
same,"TRAE Elevated serum urea, any grade",1 (8.3) n (%)
same,"TRAE Elevated serum urea, grade 3-4",0 n (%)
same,"TRAE Elevated troponin, any grade",0 n (%)
same,"TRAE Elevated troponin, grade 3-4",0 n (%)
same,"TRAE Genital rash, any grade",0 n (%)
same,"TRAE Genital rash, grade 3-4",0 n (%)
same,"TRAE Haematuria, any grade",0 n (%)
same,"TRAE Haematuria, grade 3-4",0 n (%)
same,"TRAE Headache, any grade",1 (8.3) n (%)
same,"TRAE Headache, grade 3-4",0 n (%)
same,"TRAE Hyperhidrosis, any grade",0 n (%)
same,"TRAE Hyperhidrosis, grade 3-4",0 n (%)
same,"TRAE Hyperlipidaemia, any grade",0 n (%)
same,"TRAE Hyperlipidaemia, grade 3-4",0 n (%)
same,"TRAE Hypertension, any grade",1 (8.3) n (%)
same,"TRAE Hypertension, grade 3-4",0 n (%)
same,"TRAE Hypoaesthesia oral, any grade",0 n (%)
same,"TRAE Hypoaesthesia oral, grade 3-4",0 n (%)
same,"TRAE Hypocalcaemia, any grade",0 n (%)
same,"TRAE Hypocalcaemia, grade 3-4",0 n (%)
same,"TRAE Hypotension, any grade",1 (8.3) n (%)
same,"TRAE Hypotension, grade 3-4",0 n (%)
